Values joined by “and” are separate entries in the source; they are usually repeats but may differ in a detail not shown here. Identical values can stand only once. Like-named read-outs stand apart in the source and are kept apart here.
Tests used:
[1] = biological target: T1, hCB2R (Homo sapiens, UniProt P34972); assay: biochemical; type: binding
[2] = biological target: T2, mCB1R (Mus musculus, UniProt P47746); assay: biochemical; type: binding
T2 construct: from tissue; host or cells: brain of male C57BL/6J mice
T2 sequence (P47746 whole entry): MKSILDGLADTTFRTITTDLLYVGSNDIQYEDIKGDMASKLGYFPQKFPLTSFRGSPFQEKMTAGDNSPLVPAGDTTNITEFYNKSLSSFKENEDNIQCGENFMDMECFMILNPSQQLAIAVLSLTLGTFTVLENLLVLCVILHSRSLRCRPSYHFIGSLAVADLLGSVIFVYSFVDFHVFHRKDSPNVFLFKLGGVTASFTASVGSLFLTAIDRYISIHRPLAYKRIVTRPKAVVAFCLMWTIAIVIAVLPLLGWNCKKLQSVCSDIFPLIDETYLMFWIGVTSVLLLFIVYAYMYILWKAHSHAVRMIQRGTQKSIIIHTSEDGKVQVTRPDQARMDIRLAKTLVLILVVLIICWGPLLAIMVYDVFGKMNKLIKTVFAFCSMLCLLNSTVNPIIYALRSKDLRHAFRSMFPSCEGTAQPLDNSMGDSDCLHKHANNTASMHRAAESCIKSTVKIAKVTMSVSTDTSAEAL

[3] = biological target: T3, hCB1R (Homo sapiens, UniProt P21554); assay: cell-based; type: cell-based
T3 construct: host or cells: CHO
T3 sequence (P21554 whole entry): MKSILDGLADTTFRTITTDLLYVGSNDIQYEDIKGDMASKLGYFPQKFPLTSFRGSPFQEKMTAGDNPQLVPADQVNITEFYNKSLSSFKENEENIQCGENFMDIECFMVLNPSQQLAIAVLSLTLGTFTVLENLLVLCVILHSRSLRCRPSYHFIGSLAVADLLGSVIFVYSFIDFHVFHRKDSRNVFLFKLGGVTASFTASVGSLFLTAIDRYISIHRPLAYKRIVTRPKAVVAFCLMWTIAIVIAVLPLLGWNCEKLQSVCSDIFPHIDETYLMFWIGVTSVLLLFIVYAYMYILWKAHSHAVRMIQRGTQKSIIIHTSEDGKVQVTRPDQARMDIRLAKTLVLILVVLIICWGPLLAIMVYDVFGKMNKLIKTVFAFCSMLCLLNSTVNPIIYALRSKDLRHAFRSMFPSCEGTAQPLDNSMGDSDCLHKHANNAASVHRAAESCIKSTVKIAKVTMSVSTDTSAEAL

[4] = biological target: T1, hCB2R; assay: cell-based; type: cell-based; set-up: expressed in transfected cells; host or cells: Flp-In-293 (Invitrogen #R750-07), pcDNA5/FRT
[5] = biological target: T4, Human recombinant TRPV1 (Homo sapiens, UniProt Q8NER1); assay: cell-based; type: cell-based; settings: for EC50: read-out: TRPV1 Potency EC50
T4 construct: expressed in transfected cells; host or cells: HEK293 (TRPV1-HEK-293, gift from John Davis, GlaxoSmithKline)
T4 sequence (Q8NER1 whole entry): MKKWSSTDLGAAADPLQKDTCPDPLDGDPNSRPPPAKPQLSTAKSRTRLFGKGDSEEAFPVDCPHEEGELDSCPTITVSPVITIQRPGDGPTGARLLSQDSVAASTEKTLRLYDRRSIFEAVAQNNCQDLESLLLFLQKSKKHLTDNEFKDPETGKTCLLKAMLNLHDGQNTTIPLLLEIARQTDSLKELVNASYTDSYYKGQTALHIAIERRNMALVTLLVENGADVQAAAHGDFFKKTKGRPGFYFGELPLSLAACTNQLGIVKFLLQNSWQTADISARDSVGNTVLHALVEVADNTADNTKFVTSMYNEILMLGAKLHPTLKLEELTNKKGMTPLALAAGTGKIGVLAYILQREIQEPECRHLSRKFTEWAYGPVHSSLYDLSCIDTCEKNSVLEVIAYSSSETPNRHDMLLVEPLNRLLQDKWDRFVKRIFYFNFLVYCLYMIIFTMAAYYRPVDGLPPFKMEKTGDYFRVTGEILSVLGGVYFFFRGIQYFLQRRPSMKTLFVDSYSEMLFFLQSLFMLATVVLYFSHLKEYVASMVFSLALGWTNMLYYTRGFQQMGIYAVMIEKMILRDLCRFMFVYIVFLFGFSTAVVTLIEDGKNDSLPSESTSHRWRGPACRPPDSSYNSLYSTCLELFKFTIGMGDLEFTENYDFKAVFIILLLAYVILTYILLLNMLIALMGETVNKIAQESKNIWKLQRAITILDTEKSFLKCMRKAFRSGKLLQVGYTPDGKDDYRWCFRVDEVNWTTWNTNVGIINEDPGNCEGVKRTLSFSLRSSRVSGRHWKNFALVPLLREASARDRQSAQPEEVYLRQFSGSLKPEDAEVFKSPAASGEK

[6] = biological target: T5, Rat recombinant TRPV3 (Rattus norvegicus, UniProt Q4QYD9); assay: cell-based; type: cell-based; settings: for EC50: read-out: TRPV3 Potency EC50; for IC50: vs thymol 100μM, read-out: TRPV3 IC50 for antagonism or desensitization
T5 construct: expressed in transfected cells; host or cells: HEK293 (TRPV3-HEK-293, gift from HB Bradshaw, Indiana University)
T5 sequence (Q4QYD9 1-791): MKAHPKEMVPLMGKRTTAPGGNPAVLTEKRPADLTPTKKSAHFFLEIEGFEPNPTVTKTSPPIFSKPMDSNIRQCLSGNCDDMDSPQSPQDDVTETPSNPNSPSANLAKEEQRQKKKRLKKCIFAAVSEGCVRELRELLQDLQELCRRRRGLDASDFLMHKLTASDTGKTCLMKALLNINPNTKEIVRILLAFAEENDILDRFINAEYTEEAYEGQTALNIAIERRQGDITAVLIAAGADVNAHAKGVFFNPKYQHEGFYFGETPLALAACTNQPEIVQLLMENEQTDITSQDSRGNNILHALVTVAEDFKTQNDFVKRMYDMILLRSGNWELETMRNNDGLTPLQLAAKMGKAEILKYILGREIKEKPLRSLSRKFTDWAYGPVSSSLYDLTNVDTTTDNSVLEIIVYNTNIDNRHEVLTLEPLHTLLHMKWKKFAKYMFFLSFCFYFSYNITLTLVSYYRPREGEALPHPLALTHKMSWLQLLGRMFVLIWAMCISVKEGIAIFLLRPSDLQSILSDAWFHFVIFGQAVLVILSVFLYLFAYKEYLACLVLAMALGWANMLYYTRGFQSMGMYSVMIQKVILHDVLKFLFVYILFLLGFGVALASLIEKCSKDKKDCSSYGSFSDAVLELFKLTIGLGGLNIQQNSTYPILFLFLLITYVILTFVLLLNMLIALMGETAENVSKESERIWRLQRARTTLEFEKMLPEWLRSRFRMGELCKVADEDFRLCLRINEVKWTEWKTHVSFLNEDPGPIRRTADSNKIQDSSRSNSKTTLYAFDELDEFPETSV

[7] = biological target: T6, mu (MOP) (h) (Homo sapiens, UniProt P35372); assay: CEREP panel; type: binding; settings: for inhibition at 10 µM: read-out: % inhibition mu (MOP) (h)
T6 construct: CEREP (contract assay)
T6 sequence (P35372 whole entry): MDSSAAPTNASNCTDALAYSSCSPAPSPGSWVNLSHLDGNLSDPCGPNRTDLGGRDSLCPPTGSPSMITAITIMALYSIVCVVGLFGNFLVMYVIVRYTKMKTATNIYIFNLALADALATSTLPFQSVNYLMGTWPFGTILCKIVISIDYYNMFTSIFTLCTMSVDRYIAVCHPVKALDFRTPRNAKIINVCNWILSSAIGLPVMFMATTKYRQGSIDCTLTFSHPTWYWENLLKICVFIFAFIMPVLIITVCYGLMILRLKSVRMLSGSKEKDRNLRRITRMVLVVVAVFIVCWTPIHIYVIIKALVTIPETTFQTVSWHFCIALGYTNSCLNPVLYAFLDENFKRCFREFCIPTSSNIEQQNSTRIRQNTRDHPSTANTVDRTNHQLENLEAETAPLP

[8] = tested on: Ca2+ channel (L, diltiazem site); assay: CEREP panel; type: binding; settings: 10 µM
[9] = biological target: T7, PPARα (h) (Homo sapiens, UniProt Q07869); assay: CEREP panel; type: binding; settings: for inhibition at 10 µM: read-out: % inhibition PPARα (h)
T7 construct: CEREP (contract assay)
T7 sequence (Q07869 1-468): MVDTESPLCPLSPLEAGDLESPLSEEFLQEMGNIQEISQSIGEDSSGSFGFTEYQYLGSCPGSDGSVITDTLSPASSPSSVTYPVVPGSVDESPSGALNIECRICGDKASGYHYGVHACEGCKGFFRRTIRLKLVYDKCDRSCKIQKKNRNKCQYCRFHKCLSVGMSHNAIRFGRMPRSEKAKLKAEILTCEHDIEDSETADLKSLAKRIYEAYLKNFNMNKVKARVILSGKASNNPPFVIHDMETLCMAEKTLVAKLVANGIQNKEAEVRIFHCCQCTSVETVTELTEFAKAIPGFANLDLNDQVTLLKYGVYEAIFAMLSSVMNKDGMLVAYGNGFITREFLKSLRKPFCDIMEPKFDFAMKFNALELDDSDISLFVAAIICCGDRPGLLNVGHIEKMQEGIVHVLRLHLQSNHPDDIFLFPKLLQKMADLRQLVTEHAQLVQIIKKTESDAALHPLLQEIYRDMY

[10] = 1 μM
[11] = i.v., mice; for C0: 1.0-2.0 mg/kg, extrapolated
[12] = CHO membranes, Leiden, HU210 and SR144528 from Roche
[13] = AtT20; read-out: Emax ± SEM GIRK hCB2R
[14] = read-out: TRPV1 IC50 for antagonism or desensitization
[15] = TRPV1 IC50 for antagonism or desensitization

T1 sequence (P34972 whole entry): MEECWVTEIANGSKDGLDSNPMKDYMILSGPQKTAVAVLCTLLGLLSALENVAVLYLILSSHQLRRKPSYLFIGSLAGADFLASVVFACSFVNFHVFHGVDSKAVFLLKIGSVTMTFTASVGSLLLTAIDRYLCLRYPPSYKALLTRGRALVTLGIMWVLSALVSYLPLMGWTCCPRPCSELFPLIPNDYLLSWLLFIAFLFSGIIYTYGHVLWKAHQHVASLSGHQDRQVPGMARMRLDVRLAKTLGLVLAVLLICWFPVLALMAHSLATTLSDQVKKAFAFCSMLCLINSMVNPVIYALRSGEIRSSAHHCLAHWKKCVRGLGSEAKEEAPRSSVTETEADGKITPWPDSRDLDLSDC

CN1CCCCC1Cn1cc(C(=O)c2cc([N+](=O)[O-])ccc2I)c2ccccc21 (racemic) [(rac)-AM1241]
CB2R Selectivity (binding, human) [1]: 32 | pKi ± SEM hCB2R [1, 12]: 8.39 ± 0.10 | pKi ± SEM mCB1R [2]: 5.91 ± 0.16 | Emax ± SEM GIRK hCB1R [3]: 36 ± 4 | pEC50 ± SEM GIRK hCB1R [3]: < 5 | pEC50 ± SEM GIRK hCB2R [4]: 5.23 ± 0.21 | Emax ± SEM GIRK hCB2R ([4]; normalized to CP55940): 59 ± 14%

CCCCC/C=C\C/C=C\C/C=C\C/C=C\CCCC(=O)OC(CO)CO [2-AG, 2-arachidonoyl glycerol]
Ki ([1]; CHO membranes, Leiden, HU210 and SR144528 from Roche, read-out: pKi ± SEM hCB2R (converted)): ~0.1 µM and 0.115 µM | Ki ([2]; mouse brain membranes, read-out: pKi ± SEM mCB1R (converted)): 0.102 µM | Emax ([3]; AtT20; read-out: Emax ± SEM GIRK hCB1R): 100 ± 11% | Emax [4, 13]: 100 ± 2%

CN1CCCC[C@@H]1Cn1cc(C(=O)c2cc([N+](=O)[O-])ccc2I)c2ccccc21 [(R)-AM1241]
CB2R Selectivity (binding, human) ([1]; 10^(pKi CB2R-pKi CB1R)): 38 fold | pKi ± SEM hCB2R [1, 12]: 8.44 ± 0.25 | pKi ± SEM mCB1R ([2]; mouse brain membranes): 6.36 ± 0.13 | pEC50 ± SEM GIRK hCB1R [3]: 5.00 ± 0.1 | Emax ± SEM GIRK hCB1R ([3]; normalized to CP55940): 51 ± 3% | TRPV1 Efficacy (% ionomycin 4μM) [5]: 10.7% | IC50 [5, 14]: > 50 µM | EC50 [5]: > 50 µM | TRPV3 Efficacy (% ionomycin 4μM) [6]: 12.9% | EC50 [6]: 10 µM | IC50 [6]: > 50 µM | pEC50 ± SEM GIRK hCB2R [4]: < 5 | Emax ± SEM GIRK hCB2R ([4]; normalized to CP55940): 47 ± 13%

Cc1c(C(=O)NN2CCCCC2)nn(-c2ccc(Cl)cc2Cl)c1-c1ccc(I)cc1 [AM251]
TRPV3 Efficacy (% ionomycin 4μM) [6]: 25.9% | % inhibition mu (MOP) (h) ([7]; 10 µM): 93%

CCCCC/C=C\C/C=C\C/C=C\C/C=C\CCCC(=O)NCCO [Anandamide, N-arachidonoylethanolamine]
Emax [4, 13]: 51 ± 5%

CCCCCCC(C)(C)c1ccc([C@@H]2C[C@H](O)CC[C@H]2CCCO)c(O)c1 [CP55940]
Ki [2]: 0.00158 µM | % inhibition Ca2+ channel (L, diltiazem site) [8]: -7% | inhibition at 10 µM ([7]; 10 µM): 57%

CCCCCCC(C)(C)c1cc(OC)c([C@@H]2C=C(CO)[C@@H]3C[C@H]2C3(C)C)c(OC)c1 [HU308]
Ki [2]: 0.832 µM | EC50 [3]: > 10 µM | Emax ([3]; AtT20, read-out: Emax ± SEM GIRK hCB1R): 15 ± 10% | TRPV1 Efficacy (% ionomycin 4μM) [5]: < 10% | IC50 [5, 15]: 69 ± 5.7 µM | TRPV3 Efficacy (% ionomycin 4μM) [6]: < 10% | IC50 [6]: > 100 µM | inhibition at 10 µM [7]: 7% | inhibition at 10 µM [9]: -21% | Emax ([4]; AtT20, read-out: Emax ± SEM GIRK hCB2R): 82 ± 6%

CCCCCCC(C)(C)c1cc(OC)c(C2=C[C@H]3CC[C@]2(CO)C3(C)C)c(OC)c1 [HU910]
pKi ± SEM hCB2R [1, 12]: 7.22 ± 0.31 | pKi ± SEM mCB1R ([2]; mouse brain membranes): 6.14±0.13 | pEC50 ± SEM GIRK hCB1R [3]: < 5 | Emax ± SEM GIRK hCB1R ([3]; normalized to CP55940): 7 ± 5% | TRPV1 Efficacy (% ionomycin 4μM) [5]: < 10% | IC50 [5, 14]: > 100 µM | TRPV3 Efficacy (% ionomycin 4μM) [6]: 31.3% | EC50 [6]: 0.12 ± 0.05 µM | IC50 [6]: 12.9 µM | % inhibition mu (MOP) (h) ([7]; 10 µM): 23% | % inhibition PPARα (h) ([9]; 10 µM): -28% | CL hepatocytes mouse [10]: 34 µL/min/mio cells | AUCinf [11]: 6060 ng·h/mL | AUCinf/dose [11]: 6060 kg·ng·h/mL/mg | AUClast [11]: 5960 ng·h/mL | CL [11]: 2.83 mL/min/kg | T1/2 [11]: 7.4 h and 7 h | C0 [11]: 55600 ng/mL | Emax ± SEM GIRK hCB2R ([4]; normalized to CP55940): 74 ± 2%

CCCC(C)(C)c1ccc2c(c1)OC(C)(C)[C@@H]1CC=C(C)C[C@@H]21 [JWH133]
CB2R Selectivity (binding, human) [1]: 153 fold | pKi ± SEM hCB2R [1]: 7.18 ± 0.34 | pKi ± SEM mCB1R [2]: 6.09 ± 0.13 | Emax ± SEM GIRK hCB1R [3]: 5 ± 1 | pEC50 ± SEM GIRK hCB1R [3]: < 5 | TRPV1 Efficacy (% ionomycin 4μM) [5]: 24.6% | IC50 [5, 14]: 77.7 ± 3 µM | EC50 [5]: 8.2 µM | TRPV3 Efficacy (% ionomycin 4μM) [6]: < 10% | IC50 [6]: 80.6 µM | % inhibition mu (MOP) (h) ([7]; 10 µM): 7% | % inhibition PPARα (h) ([9]; 10 µM): -25% | CL hepatocytes mouse [10]: 9.8 µL/min/mio cells | AUCinf [11]: 1750 ng·h/mL | AUCinf/dose [11]: 1090 kg·ng·h/mL/mg | AUClast [11]: 1650 ng·h/mL | CL [11]: 15.3 mL/min/kg | T1/2 [11]: 1.1 h and 1 h | Vss [11]: 1.32 L/kg and 1 to 3 L/kg | C0 [11]: 3870 ng/mL | Emax ± SEM GIRK hCB2R [4]: 31 ± 12 | pEC50 ± SEM GIRK hCB2R [4]: < 5

Cc1c(C(=O)NN2CCCCC2)nn(-c2ccc(Cl)cc2Cl)c1-c1ccc(Cl)cc1 [SR141716A]
TRPV1 Efficacy (% ionomycin 4μM) [5]: 17.5% | IC50 [5, 15]: 33.7 µM and 11.5 µM | EC50 [5]: 12 µM | TRPV3 Efficacy (% ionomycin 4μM) [6]: 38.9% | EC50 [6]: 0.85 µM | IC50 [6]: 3.4 ± 0.4 µM | inhibition at 10 µM ([9]; 10 µM): -5%

Cc1c(C(=O)c2cccc3ccccc23)c2cccc3c2n1[C@H](CN1CCOCC1)CO3 [WIN55212-2]
TRPV1 Efficacy (% ionomycin 4μM) [5]: 44.4% | IC50 [5, 14]: 35.8 ± 2.2 µM | EC50 [5]: 19.2 µM | TRPV3 Efficacy (% ionomycin 4μM) [6]: 22.9% | EC50 [6]: 6.5 µM | IC50 [6]: > 100 µM | % inhibition Ca2+ channel (L, diltiazem site) [8]: 55% | % inhibition mu (MOP) (h) ([7]; 10 µM): 21% | % inhibition PPARα (h) ([9]; 10 µM): -4% | CL hepatocytes mouse [10]: 568 µL/min/mio cells

SR144528
Emax ± SEM GIRK hCB1R [3]: 9 ± 4 | TRPV1 Efficacy (% ionomycin 4μM) [5]: < 10% | TRPV3 Efficacy (% ionomycin 4μM) [6]: < 10% | % inhibition Ca2+ channel (L, diltiazem site) [8]: 10% | % inhibition mu (MOP) (h) ([7]; 10 µM): 11% | % inhibition PPARα (h) ([9]; 10 µM): -14%

— paper PMC5216056 (Nature Communications, 2017)
